From patent US8592421B2, “Cyclic bioisosters of purine system derivatives and a pharmaceutical composition based thereon” (priority 2003, dated 2013)

Tests used:
[1] = Morphine abstinence model: indicator enzymes ALT, AST, γ-GTP in blood plasma; settings: 20.0 mg/kg intramuscularly three times a day; for γ-GTP in blood plasma, Ci: control 6.261 ± 1.80; for ALT in blood plasma, Ci: control 106.76 ± 111.35; for AST in blood plasma, Ci: control 179.881 ± 11.94
Procedure: The experiments were carried out on rats in series of 7 animals on each compound according to the invention. Non-morphinized animal with not administered with compounds according to the invention were used as a control group. […] Then the rats were decapitated, the blood from somnolent arteries was collected in test tubes with solution EDTA as an anticoagulant, centrifuged at 1500 g for 15 minutes at 4° C.
To estimate possible hepatoprotective action of the compounds according to the invention under conditions of development of an oxidizing stress in the liver cells, effect of these compounds on the most important biochemical blood indexes, in particular, on the content in blood plasma of indicator enzyme of aspartateaminotransferase (AST), alanineaminotransferase (ALT), γ-glutamiletranspeptidase (γ-GTP) was investigated. The content of enzymes was estimated by their catalyzing activity in blood plasma.
The activity of AST, ALT and γ-GTP was determined by means of diagnostic sets DiaSys, Germany.

[2] = test system: synthase of nitrogen oxide (NOC); test: Morphine abstinence model: activity of synthase of nitrogen oxide (NOC), radiometric [3H]L-citrulline method; assay type: in vivo, rats Wistar; settings: 20.0 mg/kg intramuscularly; for Activity of NOC: Mesencephalon: control 2.18 ± 0.09; for Activity of NOC: Hypothalamus: control 5.37 ± 0.20
[3] = test system: plasma hemostasis; test: Partial activated thromboplastin time (PATT) after intravenous administration; assay type: in vivo, rabbit
Procedure: The static parameters of the blood and plasma coagulation (partial activated thromboplastin time, thrombin time, maximum coagulation activity (test for auto coagulation) were determined using the Behnk Electronic coagulometer (Germany). The operating principle of this instrument is based on the fact that the formed blood clot breaks the contacts of the pulse counter in the flask-pin circuit, said pin permanently oscillating in a vertical plane. The moment of formation of the clot is registered by stopping the stop watch hand.
The measurements were effected at a constant temperature of 37° C. maintained by a temperature control unit.

[4] = Chronic toxicity of suppositories: indexes of peripheral blood; assay type: in vivo, rats; parameters: Thrombocytes: unit not given here; settings: male rats, suppositories rectally; for Basophiles / Juveniles: 1 month/2 months (one value given), control 0
[5] = test system: adenosine-sensitive receptors of erythrocytes; test: Interaction with adenosine-sensitive receptors of erythrocytes (chemiluminescence of bound compound, adenosine competition); assay type: binding, mice of line BALB/c; settings: incubation at 37° C. vs 4° C., 10^−7 to 10^−5 M
Procedure: The interaction of compounds 2, 15, 21, 37 according to the invention with adenosine-sensitive receptors of erythrocytes of female mice of line BALB/c of an age of 8-12 months was investigated.
The dependence of the chemiluminescence intensity of the compounds according to the invention in an alkaline solution of 0.1N NaOH was determined in the presence of hydrogen peroxide being an initiator of chemiluminescence. The chemiluminescence was studied using the <<LKB>> chemiluminometer.
The erythrocytes of peripheral blood of the mice at first were washed three times by a normal physiological solution with centrifuging and then diluted in the Henks solution without glucose by 10 volumes of distilled water immediately used in the experiment.
At the first stage of the experiments the washed erythrocytes were incubated at a temperature of 37° C. or at 4° C. with solutions of the compounds according to the invention at a concentration of 10^−7 to 10^−5 M for 5-30 minutes, then washed by a normal physiological solution with repeated centrifuging in the cold. The obtained suspension of erythrocytes with the bound compounds according to the invention was placed in 0.1N solution of NaOH with addition of hydrogen peroxide at a final concentration of 10^−7 M. The chemiluminescence intensity was measured. A suspension of erythrocytes without compounds according to the invention was used as a control medium.
At the second stage of the experiments the washed erythrocytes were incubated at a temperature of 37° C. with solutions of the compounds according to the invention at a concentration of 10^−11 to 10^−8 M during 5-30 minutes, then washed twice with a normal physiological solution by centrifuging in the cold, the obtained suspension was mixed with an adenosine solution at a concentration of 10^−6 to 10^−4 and incubated for 15 minutes, then washed twice with a normal physiological solution with centrifuging in the cold. The obtained suspension of erythrocytes with the compounds according to the invention was placed in 0.1N solution of NaOH with addition of hydrogen peroxide in the final concentration of 10^−7 M. The chemiluminescence intensity was measured.

O=c1[nH][nH]c(=O)c2c(Br)ncnc12.[K] [Compound 37, potassium salt of 4-bromine-pyrimido[4,5-D]-6H-pyridazine-5,8-dione]
γ-GTP in blood plasma, Ci ([1]; Control + compound): 8.14 ± 2.64 mE/l | ALT in blood plasma, Ci ([1]; Control + compound): 113.84 ± 2.0 mE/l | AST in blood plasma, Ci ([1]; Control + compound): 174.82 ± 4.91 mE/l | γ-GTP in blood plasma, Ci ([1]; control + Morphine + Compound): 10.32 ± 2.67 mE/l | ALT in blood plasma, Ci ([1]; control + Morphine + Compound): 120.84 ± 5.20 mE/l | AST in blood plasma, Ci ([1]; control + Morphine + Compound): 193.58 ± 14.18 mE/l | Activity of NOC: Mesencephalon ([2]; Control + Compound): 2.62 ± 0.27 pmol/min/mg of protein | Activity of NOC: Hypothalamus ([2]; Control + Compound): 5.61 ± 0.22 pmol/min/mg of protein | Activity of NOC: Mesencephalon ([2]; Control + Morphine + compound): 1.85 ± 0.30 pmol/min/mg of protein | Activity of NOC: Hypothalamus ([2]; Control + Morphine + compound): 5.59 ± 0.22 pmol/min/mg of protein | PATT, T ([3]; 15.0 mg/kg intravenously, after 15 minutes, control 37.0 ± 0.2): 37.0 ± 0.2 s | PATT, T ([3]; 15.0 mg/kg intravenously, after 30 minutes, control 37.0 ± 0.2): 37.1 ± 0.1 s | PATT, T ([3]; 15.0 mg/kg intravenously, after 60 minutes, control 37.0 ± 0.2): 37.0 ± 0.2 s | PATT, T ([3]; 15.0 mg/kg intravenously, after 120 minutes, control 37.0 ± 0.2): 36.9 ± 0.1 s | PATT, T ([3]; 30.0 mg/kg intravenously, after 15 minutes, control 33.3 ± 0.8): 33.1 ± 0.1 s | PATT, T ([3]; 30.0 mg/kg intravenously, after 30 minutes, control 33.3 ± 0.8): 33.3 ± 0.1 s | PATT, T ([3]; 30.0 mg/kg intravenously, after 60 minutes, control 33.3 ± 0.8): 33.3 ± 0.2 s | PATT, T ([3]; 30.0 mg/kg intravenously, after 120 minutes, control 33.3 ± 0.8): 33.0 ± 0.4 s | PATT, T ([3]; 60.0 mg/kg intravenously, after 15 minutes, control 32.5 ± 0.3): 32.5 ± 0.1 s | PATT, T ([3]; 60.0 mg/kg intravenously, after 30 minutes, control 32.5 ± 0.3): 32.3 ± 0.2 s | PATT, T ([3]; 60.0 mg/kg intravenously, after 60 minutes, control 32.5 ± 0.3): 32.4 ± 0.1 s | PATT, T ([3]; 60.0 mg/kg intravenously, after 120 minutes, control 32.5 ± 0.3): 32.6 ± 0.3 s | effect on the PATT ([3]; doses 15.0, 30.0, 60.0 mg/kg): do not affect the PATT | Basophiles ([4]; 50 mg/kg): 0% | Juveniles ([4]; 50 mg/kg): 0% | Stab neutrophil ([4]; 50 mg/kg, 1 month, control 0.8 ± 0.4): 1.3 ± 0.5% | REE ([4]; 50 mg/kg, 1 month, control 2.2 ± 0.4): 1.8 ± 0.3 mm/h | Reticulocytes ([4]; 50 mg/kg, 1 month, control 2.8%0.3): 2.6 ± 0.1% | Eosinophiles ([4]; 50 mg/kg, 1 month, control 4.0 + 0.3): 3.8 ± 0.8% | Erythrocytes ([4]; 50 mg/kg, 1 month, control 5.6 ± 0.1): 5.6 ± 0.2 mln/mm^3 | Hemoglobin ([4]; 50 mg/kg, 1 month, control 10.5 ± 0.2): 10.5 ± 0.1 mmol/L | Leukocyte ([4]; 50 mg/kg, 1 month, control 17.4 ± 1.3): 14.9 ± 1.5 thousand/mm^3 | Haematocrite ([4]; 50 mg/kg, 1 month, control 45.9 ± 1.7): 47.8 ± 1.4% | Average volume of erythrocytes ([4]; 50 mg/kg, 1 month, control 81.4 ± 1.7): 83.9 ± 1.7 Mkm^3 | Coagulation, time ([4]; 50 mg/kg, 1 month, control 152 ± 10.2): 151 ± 13 s | Thrombocytes ([4]; 50 mg/kg, 1 month, control 707 ± 23): 675 ± 22 | REE ([4]; 50 mg/kg, 2 months, control 1.4 ± 0.2): 1.6 ± 0.3 mm/h | Stab neutrophil ([4]; 50 mg/kg, 2 months, control 2.4 ± 0.4): 1.9 ± 0.4% | Reticulocytes ([4]; 50 mg/kg, 2 months, control 2.9 ± 0.2): 3.1 ± 0.1% | Eosinophiles ([4]; 50 mg/kg, 2 months, control 4.4 + 1.2): 4.2 ± 0.3% | Erythrocytes ([4]; 50 mg/kg, 2 months, control 6.1 ± 0.1): 6.2 ± 0.1 mln/mm^3 | Hemoglobin ([4]; 50 mg/kg, 2 months, control 11.4 ± 0.2): 11.0 ± 0.1 mmol/L | Leukocyte ([4]; 50 mg/kg, 2 months, control 19.1 ± 1.9): 16.7 ± 1.2 thousand/mm^3 | Haematocrite ([4]; 50 mg/kg, 2 months, control 45.9 ± 1.8): 47.5 ± 1.2% | Average volume of erythrocytes ([4]; 50 mg/kg, 2 months, control 74.6 + 1.9): 78.5 ± 1.4 Mkm^3 | Coagulation, time ([4]; 50 mg/kg, 2 months, control 316 ± 8): 319 ± 12 s | Thrombocytes ([4]; 50 mg/kg, 2 months, control 593 ± 14): 609 ± 18 | Basophiles ([4]; 500 mg/kg): 0% | Juveniles ([4]; 500 mg/kg): 0% | Stab neutrophil ([4]; 500 mg/kg, 1 month, control 0.8 ± 0.4): 0.9 ± 0.4% | REE ([4]; 500 mg/kg, 1 month, control 2.2 ± 0.4): 2.2 ± 0.3 mm/h | Reticulocytes ([4]; 500 mg/kg, 1 month, control 2.8%0.3): 3.0 ± 0.2% | Eosinophiles ([4]; 500 mg/kg, 1 month, control 4.0 + 0.3): 3.5 ± 1.0% | Erythrocytes ([4]; 500 mg/kg, 1 month, control 5.6 ± 0.1): 5.7 ± 0.1 mln/mm^3 | Hemoglobin ([4]; 500 mg/kg, 1 month, control 10.5 ± 0.2): 10.6 ± 0.1 mmol/L | Leukocyte ([4]; 500 mg/kg, 1 month, control 17.4 ± 1.3): 17.1 ± 0.9 thousand/mm^3 | Haematocrite ([4]; 500 mg/kg, 1 month, control 45.9 ± 1.7): 47.9 ± 1.8% | Average volume of erythrocytes ([4]; 500 mg/kg, 1 month, control 81.4 ± 1.7): 82.3 ± 1.5 Mkm^3 | Coagulation, time ([4]; 500 mg/kg, 1 month, control 152 ± 10.2): 157 ± 14 s | REE ([4]; 500 mg/kg, 2 months, control 1.4 ± 0.2): 2.0 ± 0.1 mm/h | Stab neutrophil ([4]; 500 mg/kg, 2 months, control 2.4 ± 0.4): 1.1 ± 0.6% | Reticulocytes ([4]; 500 mg/kg, 2 months, control 2.9 ± 0.2): 3.4 ± 0.2% | Eosinophiles ([4]; 500 mg/kg, 2 months, control 4.4 + 1.2): 4.1 ± 1.3% | Erythrocytes ([4]; 500 mg/kg, 2 months, control 6.1 ± 0.1): 6.5 ± 0.2 mln/mm^3 | Hemoglobin ([4]; 500 mg/kg, 2 months, control 11.4 ± 0.2): 12.1 ± 0.4 mmol/L | Leukocyte ([4]; 500 mg/kg, 2 months, control 19.1 ± 1.9): 18.7 ± 1.7 thousand/mm^3 | Haematocrite ([4]; 500 mg/kg, 2 months, control 45.9 ± 1.8): 52.5 ± 1.7% | Average volume of erythrocytes ([4]; 500 mg/kg, 2 months, control 74.6 + 1.9): 80.1 ± 1.0 Mkm^3 | Thrombocytes ([4]; 500 mg/kg, 2 months, control 593 ± 14): 639 ± 34 | dependence of the bond with erythrocytes on temperature [5]: does not depend on the temperature
